Experiment [1] concerns Colo205 cells. Put plainly: Analysis of Cell Proliferation and Viability. The conditions noted are these: Homo sapiens, COLO 205, 72 hours, lower bound 100 nM, upper bound 1 uM nM [sic], read-out: IC50 values after 72 hours. It is filed as cell-based. The procedure: Compounds were screened for their ability to inhibit cell proliferation and their effects on cell viability using Colo205 cells obtained from ECACC and using the assay shown below.
Colo205 cells were seeded in 96 well plates and serially diluted compound was added to the wells in duplicate. Control groups included untreated cells, the compound diluent (0.1% DMSO alone) and culture medium without cells. The cells were then incubated for 72 or 96 hrs at 37 C in an atmosphere of 5% CO2/95% humidity.
To measure proliferation, 3 h prior to the end of the experiment 0.5 μCi of 3H thymidine was added to each well. Cells were then harvested and the incorporated radioactivity counted on a Wallac microplate beta-counter. Cell viability was assessed using Promega CellTiter 96AQ to measure MTS conversion. Dose response curves were calculated using either Prism 3.0 (GraphPad) or SoftMax Pro 4.3.1 LS (Molecular Devices) software.

The target of experiment [2] is Aurora-1 (Aurora B) (Homo sapiens, UniProt Q96GD4). Briefly: Aurora-1 (Aurora B) Inhibition Assay (Radiometric). It is filed as biochemical. The conditions noted are these: 800 μM ATP, 25° C., read-out: inhibit Aurora A, Ki (printed under the Aurora-1 (Aurora B) assay). On the procedure: An assay buffer solution was prepared which consisted of 25 mM HEPES (pH 7.5), 10 mM MgCl2, 0.1% BSA and 10% glycerol. A 22 nM Aurora-B solution, also containing 1.7 mM DTT and 1.5 mM Kemptide (LRRASLG), was prepared in assay buffer. To 22 μL of the Aurora-B solution, in a 96-well plate, was added 2 μl of a compound stock solution in DMSO and the mixture allowed to equilibrate for 10 minutes at 25° C. The enzyme reaction was initiated by the addition of 16 μl stock [γ-^33P]-ATP solution (˜20 nCi/μL) prepared in assay buffer, to a final assay concentration of 800 μM. The reaction was stopped after 3 hours by the addition of 16 μL 500 mM phosphoric acid and the levels of ^33P incorporation into the peptide substrate were determined by the following method.
A phosphocellulose 96-well plate (Millipore, Cat no. MAPHNOB50) was pre-treated with 100 μL of a 100 mM phosphoric acid prior to the addition of the enzyme reaction mixture (40 μL). […] Levels of non-enzyme catalyzed background radioactivity were determined by adding 16 μL of the 500 mM phosphoric acid to control wells, containing all assay components (which acts to denature the enzyme), prior to the addition of the [γ-^33P]-ATP solution. Levels of enzyme catalyzed ^33P incorporation were calculated by subtracting mean background counts from those measured at each inhibitor concentration. […]

In experiment [3] the target is T1, Aurora-2 (Aurora A) (Homo sapiens, UniProt O14965).
T1 sequence (O14965 1-403): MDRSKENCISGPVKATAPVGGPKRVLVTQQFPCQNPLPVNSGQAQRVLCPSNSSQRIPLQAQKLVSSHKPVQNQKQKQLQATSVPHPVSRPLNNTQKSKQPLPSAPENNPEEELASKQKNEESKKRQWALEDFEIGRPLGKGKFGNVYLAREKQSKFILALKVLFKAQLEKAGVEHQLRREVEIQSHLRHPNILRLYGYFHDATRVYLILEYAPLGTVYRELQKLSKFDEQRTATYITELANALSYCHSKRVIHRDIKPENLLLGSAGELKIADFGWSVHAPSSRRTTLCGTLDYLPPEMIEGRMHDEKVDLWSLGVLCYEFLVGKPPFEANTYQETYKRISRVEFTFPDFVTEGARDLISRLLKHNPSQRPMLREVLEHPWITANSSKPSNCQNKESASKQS
Put plainly: Aurora-2 (Aurora A) Inhibition Assay (coupled enzyme assay). The conditions noted are these: 400 μM ATP, 40 nM Aurora-2, 30° C.; read-out: inhibit Aurora A, Ki. Type of experiment: biochemical. On the procedure: Compounds were screened for their ability to inhibit Aurora-2 using a standard coupled enzyme assay (Fox et al., Protein Sci., (1998) 7, 2249). Assays were carried out in a mixture of 100 mM Hepes (pH7.5), 10 mM MgCl2, 1 mM DTT, 25 mM NaCl, 2.5 mM phosphoenolpyruvate, 300 μM NADH, 30 μg/ml pyruvate kinase and 10 μg/ml lactate dehydrogenase. Final substrate concentrations in the assay were 400 μM ATP (Sigma Chemicals) and 570 μM peptide (Kemptide, American Peptide, Sunnyvale, Calif.). Assays were carried out at 30° C. and in the presence of 40 nM Aurora-2.
An assay stock buffer solution was prepared containing all of the reagents listed above, with the exception of Aurora-2 and the test compound of interest. 55 μl of the stock solution was placed in a 96 well plate followed by addition of 2 μl of DMSO stock containing serial dilutions of the test compound (typically starting from a final concentration of 7.5 μM). The plate was preincubated for 10 minutes at 30° C. and the reaction initiated by addition of 10 μl of Aurora-2. Initial reaction rates were determined with a Molecular Devices SpectraMax Plus plate reader over a 10 minute time course. IC50 and Ki data were calculated from non-linear regression analysis using the Prism software package (GraphPad Prism version 3.0cx for Macintosh, GraphPad Software, San Diego Calif., USA).

Experiment [4] concerns the target N-terminally truncated (Δ27) Abl kinase (Homo sapiens, UniProt P00519). Put plainly: Abl Kinase Activity Inhibition Assay (coupled enzyme system). The conditions noted are these: 110 μM ATP, 21 nM Abl kinase, 30° C.; read-out: inhibit Abl kinase, Ki value. It is filed as biochemical. The procedure:
Compounds were screened for their ability to inhibit N-terminally truncated (Δ27) Abl kinase activity using a standard coupled enzyme system (Fox et al., Protein Sci., 7, pp. 2249 (1998)). Reactions were carried out in a solution containing 100 mM HEPES (pH 7.5), 10 mM MgCl2, 25 mM NaCl, 300 μM NADH, 1 mM DTT and 3% DMSO. Final substrate concentrations in the assay were 110 μM ATP (Sigma Chemicals, St Louis, Mo.) and 70 μM peptide (EAIYAAPFAKKK, American Peptide, Sunnyvale, Calif.). Reactions were carried out at 30° C. and 21 nM Abl kinase. Final concentrations of the components of the coupled enzyme system were 2.5 mM phosphoenolpyruvate, 200 μM NADH, 60 μg/ml pyruvate kinase and 20 μg/ml lactate dehydrogenase.
An assay stock buffer solution was prepared containing all of the reagents listed above with the exception of ATP and the test compound of interest. The assay stock buffer solution (60 μl) was incubated in a 96 well plate with 2 μl of the test compound of interest at final concentrations typically spanning 0.002 μM to 30 μM at 30° C. for 10 min. […] Rates of reaction were obtained using a Molecular Devices Spectramax plate reader (Sunnyvale, Calif.) over 10 min at 30° C. The Ki values were determined from the residual rate data as a function of inhibitor concentration using nonlinear regression (Prism 3.0, Graphpad Software, San Diego, Calif.).

The record followed here is patent publication US8455507B2, “Aminopyrimidines useful as kinase inhibitors” (Vertex Pharmaceuticals Incorporated, priority 2007, dated 2013).

The structures appear in SMILES notation. pKi: −log10 of the molar value.

Chain of Aurora-1 (Aurora B) (Q96GD4 whole entry): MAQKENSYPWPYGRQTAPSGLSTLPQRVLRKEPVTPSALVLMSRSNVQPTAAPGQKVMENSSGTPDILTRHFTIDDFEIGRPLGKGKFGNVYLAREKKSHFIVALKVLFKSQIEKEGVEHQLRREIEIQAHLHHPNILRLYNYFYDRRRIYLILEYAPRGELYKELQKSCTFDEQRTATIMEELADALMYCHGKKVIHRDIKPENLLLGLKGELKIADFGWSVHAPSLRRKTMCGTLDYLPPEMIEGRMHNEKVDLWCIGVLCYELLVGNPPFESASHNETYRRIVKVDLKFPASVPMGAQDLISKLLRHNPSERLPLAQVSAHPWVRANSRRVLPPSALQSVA
Chain of N-terminally truncated (Δ27) Abl kinase (P00519 whole entry, stated change not applied, the tested form may be a part): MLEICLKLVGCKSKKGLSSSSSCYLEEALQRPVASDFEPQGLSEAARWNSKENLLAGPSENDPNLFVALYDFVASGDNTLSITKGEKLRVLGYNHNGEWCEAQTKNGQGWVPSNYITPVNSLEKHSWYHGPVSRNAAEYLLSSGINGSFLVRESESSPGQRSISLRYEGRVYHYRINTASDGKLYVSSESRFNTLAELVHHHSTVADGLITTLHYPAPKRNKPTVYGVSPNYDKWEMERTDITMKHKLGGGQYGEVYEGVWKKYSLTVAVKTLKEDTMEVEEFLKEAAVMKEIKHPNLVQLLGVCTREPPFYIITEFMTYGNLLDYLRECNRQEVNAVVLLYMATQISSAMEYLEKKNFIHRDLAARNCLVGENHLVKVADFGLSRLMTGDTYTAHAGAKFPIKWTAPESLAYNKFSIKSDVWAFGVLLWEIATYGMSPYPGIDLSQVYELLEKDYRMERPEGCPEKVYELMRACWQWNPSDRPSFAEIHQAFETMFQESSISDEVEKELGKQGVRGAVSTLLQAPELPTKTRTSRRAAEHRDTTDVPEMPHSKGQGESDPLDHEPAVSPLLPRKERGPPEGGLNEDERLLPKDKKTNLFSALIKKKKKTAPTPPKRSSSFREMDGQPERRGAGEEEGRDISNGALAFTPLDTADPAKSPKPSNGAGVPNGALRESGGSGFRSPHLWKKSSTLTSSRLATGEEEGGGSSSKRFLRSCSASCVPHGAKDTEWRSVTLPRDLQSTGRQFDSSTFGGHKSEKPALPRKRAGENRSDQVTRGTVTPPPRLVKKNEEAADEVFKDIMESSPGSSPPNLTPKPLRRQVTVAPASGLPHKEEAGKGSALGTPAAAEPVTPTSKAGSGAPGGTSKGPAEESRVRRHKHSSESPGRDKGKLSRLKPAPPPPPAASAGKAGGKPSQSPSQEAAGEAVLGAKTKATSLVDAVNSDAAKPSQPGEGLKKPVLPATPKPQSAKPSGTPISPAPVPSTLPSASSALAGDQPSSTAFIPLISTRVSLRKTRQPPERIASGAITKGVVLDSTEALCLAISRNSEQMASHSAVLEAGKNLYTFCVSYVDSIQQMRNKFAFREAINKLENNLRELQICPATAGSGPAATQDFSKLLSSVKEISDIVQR

`Cc1cc(Nc2cc(N3CCN(CC(F)(F)F)CC3)nc(Sc3cc(F)c4nc(C)ccc4c3)n2)[nH]n1` [Compound I-23]: the IC50 in experiment [1] fell in the range of 100 to 1000 nM.
For the compound `Cc1cc(Nc2cc(N3CCN(C4CCN(C)CC4)CC3)nc(Sc3cc(F)c4nc(C)ccc4c3)n2)[nH]n1` [Compound I-13, 2-(8-fluoro-2-methylquinolin-6-ylthio)-N-(3-methyl-1H-pyrazol-5-yl)-6-(4-(1-methylpiperidin-4-yl)piperazin-1-yl)pyrimidin-4-amine], the pKi in experiment [2] was 7.70 to 8.00; in experiment [3] it was 8.70 to 9.00; in experiment [4], more than 7.60.
As for `Cc1cc(Nc2cc(N3CCN(C(C)(C)CF)CC3)nc(Sc3ccc4nc(C(F)(F)F)cn4c3)n2)[nH]n1` [Compound I-11], the IC50 in experiment [1] fell in the range of 100 to 1000 nM.
For `Cc1cc(Nc2cc(N3CCN(C(C)(C)CF)CC3)nc(Sc3cc(F)c4nc(C)ccc4c3)n2)[nH]n1` [Compound I-6], the half-maximal inhibitory concentration (IC50) in experiment [1] is 100 to 1000 nM.
In the case of `Cc1cc(Nc2cc(N3CCN(C4CC4)CC3)nc(Sc3ccc4nc(C(F)(F)F)cn4c3)n2)[nH]n1` [Compound I-14], the IC50 in experiment [1] lay in the range of 100 to 1000 nM.
`Cc1cc(Nc2cc(N3CCN(C(C)(C)CF)CC3)nc(Sc3ccc4nc(C(F)(F)F)n(C)c4c3)n2)[nH]n1` [Compound I-21]: the IC50 in experiment [1] lay within 100 to 1000 nM.
As for `Cc1cc(Nc2cc(N3CCN(C4CC4)CC3)nc(Sc3cc(F)c4nc(C)ccc4c3)n2)[nH]n1` [Compound I-15], the IC50 in experiment [1] was in the range of 100 to 1000 nM.
As for `Cc1cc(Nc2cc(N3CCN(CC(F)(F)F)CC3)nc(Sc3ccc4nc(C(F)(F)F)cn4c3)n2)[nH]n1` [Compound I-22], in experiment [1], the concentration for half-maximal inhibition (IC50) was 100 to 1000 nM.

One may read the IC50 as the point on the concentration scale where inhibition reaches its midpoint. As usually defined, the pKi is −log10 of the Ki, conventionally taken in molar units.
